Patent US20250327034A1, “CELL CULTURE MEDIUM” (Ajinomoto Co., Inc., priority 2022, published 2025)

System: CHO cell
Test: CHO cell fed-batch culture (ambr15) with high L-cysteine feed: antibody yield (Example 6)
Format: cell-based, Chinese hamster
Conditions: CHO cells, 11 mM, 18 mM and 23-24 mM equivalent L-cysteine feed sections
Method: Basal media were prepared by adding a final concentration of 4 mM L-Glutamine (Thermo Fisher Scientific: 25030081) to media that were designed on the basis of CELLIST™ Basal media (AJINOMOTO CO., INC.: BASAL10).
Feed Media A were prepared on the basis of the commercially available CELLIST™ Feed media (AJINOMOTO CO., INC.: FEED 2). Feed media A containing a final concentration of 11 or 18 mM L-cysteine and 60 g/L glucose were prepared to have a pH of 6.7-6.9 according to the procedures described in the product instructions for FEED 2.
A 110 mM L-cysteine solution (pH 11.3) was prepared.
Using the prepared basal media, CHO suspensions adjusted to 7×10^5 celllls/mL were cultured for 14 days using the ambr15 cell culture system (Sartorius AG). All of the experimental groups were performed with n=2. […] The antibody yields on day 14 in these conditioned sections were measured using Cedex Bio HT (Roche Diagnostics K.K.)

For `N[C@@H](CS)C(=O)O` [L-cysteine], the “Antibody yield on day 14” value was “improves the antibody yield”.
